Laboratory results as given in patent publication US20170119683A1, “BIOPOLYMER-ENCAPSULATED GLYCOSYL TRANSFERASE INHIBITOR COMPOSITIONS AND METHODS FOR TREATING DIABETES AND CARDIAC INDICATIONS” (The Johns Hopkins University, priority 2014, published 2017).
“Also recorded” adds a separate entry of the source.

Legend:
[1] = system: apoE -/- mice fed a high fat and high cholesterol (HFHC) diet; test: aortic histopathology and ultrasound imaging, atherosclerosis in apoE -/- mice fed HFHC diet; format: in vivo; conditions: FIG. 2B
adipocytes = test: TNF induced insulin resistance in adipocytes; format: cell-based; conditions: chronic exposure to low levels of TNF
Description: Additionally, adipocytes were made insulin resistant by chronic exposure to low levels of tumor necrosis factor (TNF). […] This latter patient population is estimated at 10 million in the US alone.

[2] = system: cultured human arterial cell monolayer; test: in vitro model of wounding in cultured arterial cell monolayer; format: cell-based
Apolipoprotein E-/- mice = test: Example 6: ox-LDL, GalT-V and amyloid-β (ELISA, Western) in ApoE-/- mice fed HFHC diet; format: in vivo
Protocol: Testing of the impact of D-PDMP in a mouse AD model and quantification of biomarkers in such studies was performed in the following manner. […] These mice were fed either a normal diet (control) or a high-fat high-cholesterol (HFHC) diet. While a subset of the mice fed the high-fat diet was retained as a placebo group, others were treated with 5 mg/kg (mpk) or 10 mpk of the D-PDMP drug. After euthanizing these animals, tissue and blood samples were stored for further biochemical analysis. For the quantification of the biomarkers, […] (ELISA) was used. For the measurement of ox-LDL, mouse serum was coated onto the bottom of a well. […] A secondary antibody was administered to that attached specifically to the primary antibody. This secondary antibody presented an attached reporter, allowing amounts of ox-LDL could be quantified. A substrate was bound to the reporter and fluoresced. […] ELISA was also employed for quantifying levels of GalT-V and amyloid-β, using different target-specific antibodies.

[3] = native, not encapsulated
[4] = in vivo; cited from earlier work
[5] = in vivo
[6] = 5 mpk and 10 mpk by injection, not biopolymer-encapsulated

Structure (SMILES): CCCCCCCCCC(=O)N[C@H](CN1CCOCC1)[C@H](O)c1ccccc1.Cl [D-PDMP, D-threo-1-phenyl-2-decanoylamino-3-morpholino-1-propanol]
- returning aortic intima-media thickness of the ascending aorta to control levels [1]: equally efficacious
- TNF induced impairment in insulin signaling (adipocytes): reversed
- wound healing [2]: facilitated healing
- levels of GalT-V (Apolipoprotein E-/- mice; [6]): dose-dependently decreased; also recorded: decreased levels
- levels of ox-LDL (Apolipoprotein E-/- mice; [6]): dose-dependently decreased; also recorded: decreased levels
- amyloid-β levels (Apolipoprotein E-/- mice; 5 mpk and 10 mpk by injection, not biopolymer-encapsulated, brain tissue): dose-dependently decreased; also recorded: reduction
- levels of atherosclerosis and Alzheimer's disease biomarkers (Apolipoprotein E-/- mice; ApoE -/- model mice): markedly reduced
- residence time in the body of the mice [3]: about an hour
- half-life [4]: approximately 52 minutes
- toxicity [5]: no toxicity
